Target: unphosphorylated-BTK kinase domain (UP-BTK), GST-tagged human BTK (389-659aa) (Homo sapiens (Human), UniProt Q06187)
Assay: BTK kinase Lanthascreen binding assay
Conditions: Lanthascreen tracer competition, 60 minutes incubation, pIC50 = negative log of the IC50 in molar; for IC50: read-out: BTK_I_binding pIC50 (converted)
How it was run: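 A fluorescent tracer is bound to unphosphorylated BTK; test compound is added to compete it off; the Lanthascreen signal is read and IC50 is fitted, then reported as its negative log in molar.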

Sequence of unphosphorylated-BTK kinase domain (UP-BTK), GST-tagged human BTK (389-659aa) (Q06187 389-659): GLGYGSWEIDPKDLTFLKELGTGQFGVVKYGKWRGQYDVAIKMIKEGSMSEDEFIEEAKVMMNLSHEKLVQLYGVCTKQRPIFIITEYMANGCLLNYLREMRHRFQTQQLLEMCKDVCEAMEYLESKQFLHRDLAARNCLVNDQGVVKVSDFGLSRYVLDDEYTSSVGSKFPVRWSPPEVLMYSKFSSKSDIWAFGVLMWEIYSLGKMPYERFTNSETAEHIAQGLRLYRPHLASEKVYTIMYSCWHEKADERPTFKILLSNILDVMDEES

Compound	BTK_I_binding pIC50	IC50 [nM]
C=CC(=O)N1CCC[C@@H](NC(=O)c2sc3nccc4c3c2NC(=O)N4c2ccc(OC(C)C)nc2C)C1 [Example 732, (R)—N-(1-Acryloylpiperidin-3-yl)-5-(6-isopropoxy-2-methylpyridin-3-yl)-4-oxo-4,5-dihydro-3H-1-thia-3,5,8-triazaacenaphthylene-2-carboxamide]	<6	
Cc1c(N2C(=O)Nc3c(C(=O)N[C@@H]4CCCNC4)sc4nccc2c34)ccnc1-c1ccccc1 [Example 733, (R)-5-(3-Methyl-2-phenylpyridin-4-yl)-4-oxo-N-(piperidin-3-yl)-4,5-dihydro-3H-1-thia-3,5,8-triazaacenaphthylene-2-carboxamide]	<6	
C=CC(=O)N1CCC[C@@H](NC(=O)c2sc3nccc4c3c2NC(=O)N4c2cc(C)nc(-c3ccccc3)c2)C1 [Example 734, (R)—N-(1-Acryloylpiperidin-3-yl)-5-(2-methyl-6-phenylpyridin-4-yl)-4-oxo-4,5-dihydro-3H-1-thia-3,5,8-triazaacenaphthylene-2-carboxamide]	<6	
Cc1cc(N2C(=O)Nc3c(C(=O)N[C@@H]4CCCNC4)sc4nccc2c34)cc(-c2ccccc2)n1 [Example 735, (R)-5-(2-Methyl-6-phenylpyridin-4-yl)-4-oxo-N-(piperidin-3-yl)-4,5-dihydro-3H-1-thia-3,5,8-triazaacenaphthylene-2-carboxamide]		> 1000
O=C(N[C@@H]1CCCNC1)c1sc2nccc3c2c1NC(=O)N3c1cccc(C2CCOCC2)c1 [Example 738, (R)-4-Oxo-N-(piperidin-3-yl)-5-(3-(tetrahydro-2H-pyran-4-yl)phenyl)-4,5-dihydro-3H-1-thia-3,5,8-triazaacenaphthylene-2-carboxamide]	<6	
CC(C)(C)OC(=O)N1CCC[C@@H](NC(=O)c2sc3nccc4c3c2NC(=O)N4c2cccc(C3CCOCC3)c2)C1 [Example 739, (R)-tert-Butyl 3-(4-oxo-5-(3-(tetrahydro-2H-pyran-4-yl)phenyl)-4,5-dihydro-3H-1-thia-3,5,8-triazaacenaphthylene-2-carboxamido)piperidine-1-carboxylate]	<6	
O=C(N[C@@H]1CCCNC1)c1sc2nccc3c2c1NC(=O)N3c1cnnc(-c2ccccc2)c1 [Example 740, (R)-4-Oxo-5-(6-phenylpyridazin-4-yl)-N-(piperidin-3-yl)-4,5-dihydro-3H-1-thia-3,5,8-triazaacenaphthylene-2-carboxamide]	<6	
O=C(N[C@@H]1CCNC1)c1sc2nccc3c2c1NC(=O)N3c1ccc(Oc2ccccc2)nc1 [Example 741, (R)-4-Oxo-5-(6-phenoxypyridin-3-yl)-N-(pyrrolidin-3-yl)-4,5-dihydro-3H-1-thia-3,5,8-triazaacenaphthylene-2-carboxamide]	5.9	
Cc1nc(Oc2ccccc2)ccc1N1C(=O)Nc2c(C(=O)N[C@@H]3CCCN(C(=O)OC(C)(C)C)C3)sc3nccc1c23 [Example 743, (R)-tert-Butyl 3-(5-(2-methyl-6-phenoxypyridin-3-yl)-4-oxo-4,5-dihydro-3H-1-thia-3,5,8-triazaacenaphthylene-2-carboxamido)piperidine-1-carboxylate]		1580
O=C(N[C@@H]1CCCNC1)c1sc2nccc3c2c1NC(=O)N3c1ccc(OC2CCC2)nc1 [Example 744, (R)-5-(6-Cyclobutoxypyridin-3-yl)-4-oxo-N-(piperidin-3-yl)-4,5-dihydro-3H-1-thia-3,5,8-triazaacenaphthylene-2-carboxamide]	5.7	

Second part, the compound after the results:

BTK_I_binding pIC50	IC50 [nM]	Compound
6.8		C=CC(=O)N1CC[C@@H](NC(=O)c2sc3nccc4c3c2NC(=O)N4c2cnc(Oc3ccccc3)nc2)C1 [Example 748, (R)—N-(1-Acryloylpyrrolidin-3-yl)-4-oxo-5-(2-phenoxypyrimidin-5-yl)-4,5-dihydro-3H-1-thia-3,5,8-triazaacenaphthylene-2-carboxamide]
7.3		C=CC(=O)N1CC[C@@H](NC(=O)c2sc3nccc4c3c2NC(=O)N4c2ncc(Oc3ccccc3)cn2)C1 [Example 749, (R)—N-(1-Acryloylpyrrolidin-3-yl)-4-oxo-5-(5-phenoxypyrimidin-2-yl)-4,5-dihydro-3H-1-thia-3,5,8-triazaacenaphthylene-2-carboxamide]
6.6		C=CC(=O)N1CCC[C@@H](NC(=O)c2sc3nccc4c3c2NC(=O)N4c2ccc(CC(C)C)cc2)C1 [Example 750, (R)—N-(1-Acryloylpiperidin-3-yl)-5-(4-isobutylphenyl)-4-oxo-4,5-dihydro-3H-1-thia-3,5,8-triazaacenaphthylene-2-carboxamide]
6.7		C=CC(=O)N1CCC[C@@H](NC(=O)c2sc3nccc4c3c2NC(=O)N4c2cc(-c3ccccc3)cnn2)C1 [Example 751, (R)—N-(1-Acryloylpiperidin-3-yl)-4-oxo-5-(5-phenylpyridazin-3-yl)-4,5-dihydro-3H-1-thia-3,5,8-triazaacenaphthylene-2-carboxamide]
<6		CC(C)Cc1ccc(N2C(=O)Nc3c(C(=O)N[C@@H]4CCCNC4)sc4nccc2c34)cc1 [Example 754, (R)-5-(4-Isobutylphenyl)-4-oxo-N-(piperidin-3-yl)-4,5-dihydro-3H-1-thia-3,5,8-triazaacenaphthylene-2-carboxamide]
<6		O=C(N[C@@H]1CCCNC1)c1sc2nccc3c2c1NC(=O)N3c1cc(-c2ccccc2)cnn1 [Example 755, (R)-4-Oxo-5-(5-phenylpyridazin-3-yl)-N-(piperidin-3-yl)-4,5-dihydro-3H-1-thia-3,5,8-triazaacenaphthylene-2-carboxamide]
6.3		C=CC(=O)N1CCC[C@@H](NC(=O)c2sc3nccc4c3c2NC(=O)N4c2ccc(CC(C)C)nc2C)C1 [Example 764, (R)—N-(1-Acryloylpiperidin-3-yl)-5-(6-isobutyl-2-methylpyridin-3-yl)-4-oxo-4,5-dihydro-3H-1-thia-3,5,8-triazaacenaphthylene-2-carboxamide]
<6		C=CC(=O)N1CCC[C@@H](NC(=O)c2sc3nccc4c3c2NC(=O)N4c2ccc(OC3CCOCC3)nc2C)C1 [Example 770, (R)—N-(1-Acryloylpiperidin-3-yl)-5-(2-methyl-6-((tetrahydro-2H-pyran-4-yl)oxy)pyridin-3-yl)-4-oxo-4,5-dihydro-3H-1-thia-3,5,8-triazaacenaphthylene-2-carboxamide]
7.4		C=CC(=O)N1CCC[C@@H](NC(=O)c2sc3nccc4c3c2NC(=O)N4c2ccc(Oc3cccnc3C)cc2)C1 [Example 771, (R)—N-(1-Acryloylpiperidin-3-yl)-5-(4-((2-methylpyridin-3-yl)oxy)phenyl)-4-oxo-4,5-dihydro-3H-1-thia-3,5,8-triazaacenaphthylene-2-carboxamide]
7.7		C=CC(=O)N1CCC[C@@H](NC(=O)c2sc3nccc4c3c2NC(=O)N4c2ccc(Oc3cccc(C)n3)cc2C)C1 [Example 772, (R)—N-(1-Acryloylpiperidin-3-yl)-5-(2-methyl-4-((6-methylpyridin-2-yl)oxy)phenyl)-4-oxo-4,5-dihydro-3H-1-thia-3,5,8-triazaacenaphthylene-2-carboxamide]

— patent US10800792B2, “Inhibitors of Bruton's tyrosine kinase and method of their use” (JANSSEN PHARMACEUTICA NV, priority 2015, dated 2020)
